Laboratory results as given in publication PMC10686834, “Targeting myeloid chemotaxis to reverse prostate cancer therapy resistance” (Nature, 2023).

System: patients with ARSI-resistant mCRPC
Assay: Phase 1 trial of AZD5069 plus enzalutamide: safety and tolerability (DLTs, treatment-emergent adverse events, NCI-CTCAE v.4.0)
Format: in vivo
Description: The primary trial objective was to evaluate the safety and tolerability of the combination. Key secondary objectives were to evaluate pharmacokinetic–pharmacodynamic parameters and antitumour activity.
Eligible patients were consenting patients aged ≥18 years, who had mCRPC with histologically confirmed prostate adenocarcinoma histology, documented cancer progression at the time of trial entry by Response Evaluation Criteria in Solid Tumors (v.1.1) and/or Prostate Cancer Working Group 2 criteria, and PSA of ≥10 ng ml^−1 at screening.
The dose-escalation phase used a rule-based 3 + 3 design, with an initial three patients enrolled per dose level. If none of the first three patients experienced a DLT, dose escalation proceeded to the next dose level. […] If fewer than two of six patients at any dose level experienced a DLT, dose escalation continued to the next level. If at least two out of up to six patients experienced a DLT, dose escalation stopped and this dose level was defined as the maximum administered dose. Once this maximum administered dose was defined, the maximum tolerated dose (MTD) was confirmed at the dose level below the maximum administered dose. At least six evaluable patients were required to establish the MTD at a specific dose level. […] Intra-patient dose escalation was not permitted. Start of dosing between the first and second patient enrolled to each dose level was staggered by 1 week. Once the MTD was determined in the phase 1 study, the recommended phase 2 dose was determined on the basis of available data, including but not limited to safety and response.
DLTs were defined as described in the study protocol. […] Prophylaxis with growth factor support or antipyretics were not permitted. Investigators determined whether an adverse event was related to the study drugs. If a patient experienced clinically significant and/or unacceptable toxicity, including a DLT, not attributable to the disease or disease-related processes, dosing was interrupted or the dose was reduced and supportive therapy was administered as required.

C[C@@H](Oc1cc(NS(=O)(=O)N2CCC2)nc(SCc2cccc(F)c2F)n1)[C@@H](O)CO [AZD5069]
TEAE Arthralgia, G≥3 (AZD5069 160 mg BD (n=6)): 0 (0) n (%)
TEAE Aspartate aminotransferase increased, All G (AZD5069 160 mg BD (n=6)): 0 (0) n (%)
TEAE Aspartate aminotransferase increased, G≥3 (AZD5069 160 mg BD (n=6)): 0 (0) n (%)
TEAE Constipation, All G (AZD5069 160 mg BD (n=6)): 0 (0) n (%)
TEAE Constipation, G≥3 (AZD5069 160 mg BD (n=6)): 0 (0) n (%)
TEAE Death, All G (AZD5069 160 mg BD (n=6)): 0 (0) n (%)
TEAE Death, G≥3 (AZD5069 160 mg BD (n=6)): 0 (0) n (%)
TEAE Decreased appetite, All G (AZD5069 160 mg BD (n=6)): 0 (0) n (%)
TEAE Decreased appetite, G≥3 (AZD5069 160 mg BD (n=6)): 0 (0) n (%)
TEAE Diarrhoea, All G (AZD5069 160 mg BD (n=6)): 0 (0) n (%)
TEAE Diarrhoea, G≥3 (AZD5069 160 mg BD (n=6)): 0 (0) n (%)
TEAE Dry skin, All G (AZD5069 160 mg BD (n=6)): 0 (0) n (%)
TEAE Dry skin, G≥3 (AZD5069 160 mg BD (n=6)): 0 (0) n (%)
TEAE Fatigue, All G (AZD5069 160 mg BD (n=6)): 2 (33) n (%)
TEAE Fatigue, G≥3 (AZD5069 160 mg BD (n=6)): 0 (0) n (%)
TEAE Headache, All G (AZD5069 160 mg BD (n=6)): 0 (0) n (%)
TEAE Headache, G≥3 (AZD5069 160 mg BD (n=6)): 0 (0) n (%)
TEAE Hypophosphataemia, All G (AZD5069 160 mg BD (n=6)): 0 (0) n (%)
TEAE Hypophosphataemia, G≥3 (AZD5069 160 mg BD (n=6)): 0 (0) n (%)
TEAE Nausea, All G (AZD5069 160 mg BD (n=6)): 2 (33) n (%)
TEAE Nausea, G≥3 (AZD5069 160 mg BD (n=6)): 0 (0) n (%)
TEAE Neutrophil decreased, All G (AZD5069 160 mg BD (n=6)): 5 (83) n (%)
TEAE Neutrophil decreased, G≥3 (AZD5069 160 mg BD (n=6)): 4 (67) n (%)
TEAE Oedema genital, All G (AZD5069 160 mg BD (n=6)): 1 (17) n (%)
TEAE Oedema genital, G≥3 (AZD5069 160 mg BD (n=6)): 0 (0) n (%)
TEAE Platelet decreased, All G (AZD5069 160 mg BD (n=6)): 1 (17) n (%)
TEAE Platelet decreased, G≥3 (AZD5069 160 mg BD (n=6)): 0 (0) n (%)
TEAE Pruritus, All G (AZD5069 160 mg BD (n=6)): 0 (0) n (%)
TEAE Pruritus, G≥3 (AZD5069 160 mg BD (n=6)): 0 (0) n (%)
TEAE Skin infection, All G (AZD5069 160 mg BD (n=6)): 0 (0) n (%)
TEAE Skin infection, G≥3 (AZD5069 160 mg BD (n=6)): 0 (0) n (%)
TEAE Vomiting, All G (AZD5069 160 mg BD (n=6)): 0 (0) n (%)
TEAE Vomiting, G≥3 (AZD5069 160 mg BD (n=6)): 0 (0) n (%)
TEAE White blood cell decreased, All G (AZD5069 160 mg BD (n=6)): 2 (33) n (%)
TEAE White blood cell decreased, G≥3 (AZD5069 160 mg BD (n=6)): 0 (0) n (%)
TEAE Anemia, All G (AZD5069 320 mg BD (n=7)): 0 (0) n (%)
TEAE Anemia, G≥3 (AZD5069 320 mg BD (n=7)): 0 (0) n (%)
TEAE Aphasia, All G (AZD5069 320 mg BD (n=7)): 1 (14) n (%)
TEAE Aphasia, G≥3 (AZD5069 320 mg BD (n=7)): 0 (0) n (%)
TEAE Arthralgia, All G (AZD5069 320 mg BD (n=7)): 1 (14) n (%)
TEAE Arthralgia, G≥3 (AZD5069 320 mg BD (n=7)): 0 (0) n (%)
TEAE Aspartate aminotransferase increased, All G (AZD5069 320 mg BD (n=7)): 1 (14) n (%)
TEAE Aspartate aminotransferase increased, G≥3 (AZD5069 320 mg BD (n=7)): 0 (0) n (%)
TEAE Constipation, All G (AZD5069 320 mg BD (n=7)): 1 (14) n (%)
TEAE Constipation, G≥3 (AZD5069 320 mg BD (n=7)): 0 (0) n (%)
TEAE Death, All G (AZD5069 320 mg BD (n=7)): 1 (14) n (%)
TEAE Death, G≥3 (AZD5069 320 mg BD (n=7)): 1 (14) n (%)
TEAE Decreased appetite, All G (AZD5069 320 mg BD (n=7)): 1 (14) n (%)
TEAE Decreased appetite, G≥3 (AZD5069 320 mg BD (n=7)): 0 (0) n (%)
TEAE Diarrhoea, All G (AZD5069 320 mg BD (n=7)): 1 (14) n (%)
TEAE Diarrhoea, G≥3 (AZD5069 320 mg BD (n=7)): 1 (14) n (%)
TEAE Dry skin, All G (AZD5069 320 mg BD (n=7)): 1 (14) n (%)
TEAE Dry skin, G≥3 (AZD5069 320 mg BD (n=7)): 0 (0) n (%)
TEAE Fatigue, All G (AZD5069 320 mg BD (n=7)): 3 (43) n (%)
TEAE Fatigue, G≥3 (AZD5069 320 mg BD (n=7)): 0 (0) n (%)
TEAE Headache, All G (AZD5069 320 mg BD (n=7)): 3 (43) n (%)
TEAE Headache, G≥3 (AZD5069 320 mg BD (n=7)): 0 (0) n (%)
TEAE Hypophosphataemia, All G (AZD5069 320 mg BD (n=7)): 0 (0) n (%)
TEAE Hypophosphataemia, G≥3 (AZD5069 320 mg BD (n=7)): 0 (0) n (%)
TEAE Nausea, All G (AZD5069 320 mg BD (n=7)): 1 (14) n (%)
TEAE Nausea, G≥3 (AZD5069 320 mg BD (n=7)): 0 (0) n (%)
TEAE Neutrophil decreased, All G (AZD5069 320 mg BD (n=7)): 6 (86) n (%)
TEAE Neutrophil decreased, G≥3 (AZD5069 320 mg BD (n=7)): 4 (57) n (%)
TEAE Oedema genital, All G (AZD5069 320 mg BD (n=7)): 0 (0) n (%)
TEAE Oedema genital, G≥3 (AZD5069 320 mg BD (n=7)): 0 (0) n (%)
TEAE Platelet decreased, All G (AZD5069 320 mg BD (n=7)): 0 (0) n (%)
TEAE Platelet decreased, G≥3 (AZD5069 320 mg BD (n=7)): 0 (0) n (%)
TEAE Pruritus, All G (AZD5069 320 mg BD (n=7)): 0 (0) n (%)
TEAE Pruritus, G≥3 (AZD5069 320 mg BD (n=7)): 0 (0) n (%)
TEAE Skin infection, All G (AZD5069 320 mg BD (n=7)): 0 (0) n (%)
TEAE Skin infection, G≥3 (AZD5069 320 mg BD (n=7)): 0 (0) n (%)
TEAE Vomiting, All G (AZD5069 320 mg BD (n=7)): 0 (0) n (%)
TEAE Vomiting, G≥3 (AZD5069 320 mg BD (n=7)): 0 (0) n (%)
TEAE White blood cell decreased, All G (AZD5069 320 mg BD (n=7)): 1 (14) n (%)
TEAE White blood cell decreased, G≥3 (AZD5069 320 mg BD (n=7)): 0 (0) n (%)
TEAE Anemia, All G (All patients (n=23)): 4 (17) n (%)
TEAE Anemia, G≥3 (All patients (n=23)): 1 (4) n (%)
TEAE Aphasia, All G (All patients (n=23)): 1 (4) n (%)
TEAE Aphasia, G≥3 (All patients (n=23)): 0 (0) n (%)
TEAE Arthralgia, All G (All patients (n=23)): 1 (4) n (%)
TEAE Arthralgia, G≥3 (All patients (n=23)): 0 (0) n (%)
TEAE Aspartate aminotransferase increased, All G (All patients (n=23)): 1 (4) n (%)
TEAE Aspartate aminotransferase increased, G≥3 (All patients (n=23)): 0 (0) n (%)
TEAE Constipation, All G (All patients (n=23)): 2 (9) n (%)
TEAE Constipation, G≥3 (All patients (n=23)): 0 (0) n (%)
TEAE Death, All G (All patients (n=23)): 1 (4) n (%)
TEAE Death, G≥3 (All patients (n=23)): 1 (4) n (%)
TEAE Decreased appetite, All G (All patients (n=23)): 1 (4) n (%)
TEAE Decreased appetite, G≥3 (All patients (n=23)): 0 (0) n (%)
TEAE Diarrhoea, All G (All patients (n=23)): 1 (4) n (%)
TEAE Diarrhoea, G≥3 (All patients (n=23)): 1 (4) n (%)
TEAE Dry skin, All G (All patients (n=23)): 1 (4) n (%)
TEAE Dry skin, G≥3 (All patients (n=23)): 0 (0) n (%)
TEAE Fatigue, All G (All patients (n=23)): 7 (30) n (%)
TEAE Fatigue, G≥3 (All patients (n=23)): 0 (0) n (%)
TEAE Headache, All G (All patients (n=23)): 3 (13) n (%)
TEAE Headache, G≥3 (All patients (n=23)): 0 (0) n (%)
TEAE Hypophosphataemia, All G (All patients (n=23)): 1 (4) n (%)
TEAE Hypophosphataemia, G≥3 (All patients (n=23)): 0 (0) n (%)
TEAE Nausea, All G (All patients (n=23)): 5 (22) n (%)
TEAE Nausea, G≥3 (All patients (n=23)): 0 (0) n (%)
TEAE Neutrophil decreased, All G (All patients (n=23)): 19 (83) n (%)
TEAE Neutrophil decreased, G≥3 (All patients (n=23)): 11 (48) n (%)
TEAE Oedema genital, All G (All patients (n=23)): 1 (4) n (%)
TEAE Oedema genital, G≥3 (All patients (n=23)): 0 (0) n (%)
TEAE Platelet decreased, All G (All patients (n=23)): 2 (9) n (%)
TEAE Platelet decreased, G≥3 (All patients (n=23)): 0 (0) n (%)
TEAE Pruritus, All G (All patients (n=23)): 1 (4) n (%)
TEAE Pruritus, G≥3 (All patients (n=23)): 0 (0) n (%)
TEAE Skin infection, All G (All patients (n=23)): 1 (4) n (%)
TEAE Skin infection, G≥3 (All patients (n=23)): 0 (0) n (%)
TEAE Vomiting, All G (All patients (n=23)): 1 (4) n (%)
TEAE Vomiting, G≥3 (All patients (n=23)): 0 (0) n (%)
TEAE White blood cell decreased, All G (All patients (n=23)): 3 (13) n (%)
TEAE White blood cell decreased, G≥3 (All patients (n=23)): 0 (0) n (%)
permanent treatment discontinuation due to treatment-emergent adverse events (all dose levels): no permanent treatment discontinuation
treatment-emergent anaemia, all grades (all dose levels, 23 patients): 17%
treatment-emergent anaemia, grade ≥ 3 (all dose levels, 23 patients): 4%
treatment-emergent constipation, all grades (all dose levels, 23 patients): 9%
treatment-emergent fatigue, all grades (all dose levels, 23 patients): 30%
treatment-emergent headache, all grades (all dose levels, 23 patients): 13%
treatment-emergent leukopaenia, all grades (all dose levels, 23 patients): 13%
treatment-emergent nausea, all grades (all dose levels, 23 patients): 22%
treatment-emergent neutropaenia, all grades (all dose levels, 23 patients): 83%
treatment-emergent neutropaenia, grade ≥ 3 (all dose levels, 23 patients): 48%
treatment-emergent thrombocytopaenia, all grades (all dose levels, 23 patients): 9%
